From patent publication US20240002437A1, “COMPOSITIONS AND METHODS OF TREATING INFLAMMATORY LUNG DISEASES” (priority 2020, published 2024)
“Also recorded” adds a separate entry of the source.

Experiments:
purified PKCα = purified PKCα (Homo sapiens, UniProt P17252); assay: In vitro peptide binding assay (biotinylated d-peptide, streptavidin capture, blot); settings: biotinylated d-peptide 0 to 5 μg, PKC lipid activator, 1 hour room temperature
Description: (§1) Biotinylation of the decoy peptide (d-peptide) was performed using the Thermo Scientific EZ-Link Sulfo-NHS-LC-Biotinylation Kit. Briefly, Sulfo-NHS-LC-Biotin was mixed with d-peptide and the reaction mix was incubated at room temperature for 30 minutes. Different concentrations of the biotinylated d-peptide (0 to 5 μg) mixed with either purified eNOS protein or PKCα protein in a reaction mix containing PKC lipid activator were incubated at room temperature for 1 hour. Protein bound to the biotinylated d-peptide was captured using Thermo Scientific streptavidin agarose column and run on a 10% SDS-PAGE gel under reducing condition. The resulting blots were probed with antibodies to eNOS and PKCα protein respectively. Reactive bands were visualized using chemiluminescence on the LI-COR Odyssey image station.

purified eNOS protein = target: T1, purified eNOS protein (Homo sapiens, UniProt P29474); assay: as above; settings: biotinylated d-peptide 0 to 5 μg, 1 hour room temperature
T1 sequence (P29474 1-1203): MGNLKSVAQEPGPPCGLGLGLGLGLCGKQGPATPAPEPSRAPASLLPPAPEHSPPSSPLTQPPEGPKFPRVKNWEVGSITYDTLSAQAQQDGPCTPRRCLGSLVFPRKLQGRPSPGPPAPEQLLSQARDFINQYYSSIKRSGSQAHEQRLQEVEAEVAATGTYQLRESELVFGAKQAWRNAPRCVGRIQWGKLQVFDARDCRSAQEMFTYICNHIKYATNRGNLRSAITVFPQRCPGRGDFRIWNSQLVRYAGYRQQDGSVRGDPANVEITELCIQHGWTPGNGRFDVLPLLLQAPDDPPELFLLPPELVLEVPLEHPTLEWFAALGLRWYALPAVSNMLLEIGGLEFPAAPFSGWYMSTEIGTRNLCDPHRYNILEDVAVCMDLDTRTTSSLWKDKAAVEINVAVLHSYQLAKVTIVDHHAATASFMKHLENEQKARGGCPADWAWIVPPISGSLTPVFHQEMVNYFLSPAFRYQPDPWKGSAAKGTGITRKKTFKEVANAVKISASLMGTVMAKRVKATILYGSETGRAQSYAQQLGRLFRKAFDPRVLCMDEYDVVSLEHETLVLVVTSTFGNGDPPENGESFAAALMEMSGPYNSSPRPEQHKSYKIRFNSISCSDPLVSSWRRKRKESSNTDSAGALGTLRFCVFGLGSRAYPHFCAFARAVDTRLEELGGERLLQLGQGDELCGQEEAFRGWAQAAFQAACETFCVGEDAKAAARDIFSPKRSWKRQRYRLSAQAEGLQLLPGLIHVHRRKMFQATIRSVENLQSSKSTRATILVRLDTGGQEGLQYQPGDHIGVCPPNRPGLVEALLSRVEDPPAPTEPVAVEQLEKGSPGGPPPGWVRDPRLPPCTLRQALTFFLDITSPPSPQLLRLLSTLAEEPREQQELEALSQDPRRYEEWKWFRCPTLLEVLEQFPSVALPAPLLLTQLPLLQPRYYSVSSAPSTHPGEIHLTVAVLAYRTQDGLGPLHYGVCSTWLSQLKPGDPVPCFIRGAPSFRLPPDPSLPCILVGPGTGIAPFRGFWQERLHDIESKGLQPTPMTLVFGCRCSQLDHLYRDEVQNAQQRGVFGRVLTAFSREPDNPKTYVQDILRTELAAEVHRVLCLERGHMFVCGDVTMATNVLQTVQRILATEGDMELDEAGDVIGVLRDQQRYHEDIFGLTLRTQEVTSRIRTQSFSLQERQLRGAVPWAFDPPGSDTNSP
Description: as §1

mouse model of VILI = assay: Mouse model of VILI (high tidal volume ventilation); type: in vivo; settings: 10 mg/kg intraperitoneally 3 h before ventilation; tidal volume 35 mL/kg, 4 h
Description: Male C57BL/6 mice aged between 6 and 8 weeks were purchased from Jackson Laboratories (ME, USA). Mice were maintained at a room temperature of 22±1° C. in air with 40-70% humidity at least one week before experiments. Animals were randomly distributed into 4 groups (n=5 in each group): non-ventilated control mice with normal saline; non-ventilated control mice treated with the eNOS decoy peptide (d-peptide); high tidal volume with normal saline; high tidal volume with eNOS decoy peptide. Three hours before ventilation, saline or the eNOS decoy peptide (10 mg/kg body weight) were injected intraperitoneally. Before mechanical ventilation was initiated, mice were anesthetized using an intraperitoneal injection with a cocktail containing ketamine (100 mg/kg) and xylazine (5 mg/kg). The mice were then placed in a supine position on a heating pad to maintain body temperature. For the ventilation procedure, mice were orotracheally intubated with a 20 g intravenous indwelling catheter and attached to a small animal ventilator (SAR-1000, CWE Inc., USA). The ventilation parameters were set as follows: inspiration/expiration ratio, 33%; respiratory rate, 75 breaths/min; and tidal volume, 35 mL/kg (high tidal volume group). During mechanical ventilation, mice were maintained in deep anesthesia by injecting with ketamine (100 mg/kg) every 45 minutes for the duration of the 4 h study. Mice in the non-ventilated control group were allowed to spontaneously breathe. […] The pellets were then resuspended in 500 μl of PBS and the cell numbers present were determined using an automated cell counter. The BAL fluid was centrifuged again at 15,000× g at 4° C. for 15 min and the supernatant collected and stored at −80° C. until the protein concentration was measured. […]
Protein extracts were prepared using lysis buffer (50 mM Tris-HCl, pH 7.6, 0.5% Triton X-100, 20% glycerol) containing HALT™ protease inhibitor cocktail (Pierce Laboratories, Rockford, IL). […] Bands were quantified using LI-COR Image Station software. […]

HRKKRRQRRITRKKTFKEVA [d-peptide]
binding to purified PKCα (purified PKCα): binds efficiently; also recorded: able to bind efficiently to purified PKCα
binding to eNOS (purified eNOS protein): but not to eNOS
BALF cell number (mouse model of VILI): decreases in the cell number
BALF protein levels (mouse model of VILI): decreases
increase in pT495-eNOS induced by mechanical ventilation of the mouse lung (mouse model of VILI): attenuated the increase in pT495-eNOS induced by mechanical ventilation
